Source: paper PMC11459956, “Onametostat, a PfPRMT5 inhibitor, exhibits antimalarial activity to Plasmodium falciparum” (Antimicrobial Agents and Chemotherapy, 2024)

Target: T1, PfPRMT5 (Plasmodium falciparum, UniProt Q8ID96)
T1 construct: gene PF3D7_1361000; protein A part cut by TEV, protein C tag kept; associated parasite proteins may co-purify
T1 sequence (Q8ID96 1-724): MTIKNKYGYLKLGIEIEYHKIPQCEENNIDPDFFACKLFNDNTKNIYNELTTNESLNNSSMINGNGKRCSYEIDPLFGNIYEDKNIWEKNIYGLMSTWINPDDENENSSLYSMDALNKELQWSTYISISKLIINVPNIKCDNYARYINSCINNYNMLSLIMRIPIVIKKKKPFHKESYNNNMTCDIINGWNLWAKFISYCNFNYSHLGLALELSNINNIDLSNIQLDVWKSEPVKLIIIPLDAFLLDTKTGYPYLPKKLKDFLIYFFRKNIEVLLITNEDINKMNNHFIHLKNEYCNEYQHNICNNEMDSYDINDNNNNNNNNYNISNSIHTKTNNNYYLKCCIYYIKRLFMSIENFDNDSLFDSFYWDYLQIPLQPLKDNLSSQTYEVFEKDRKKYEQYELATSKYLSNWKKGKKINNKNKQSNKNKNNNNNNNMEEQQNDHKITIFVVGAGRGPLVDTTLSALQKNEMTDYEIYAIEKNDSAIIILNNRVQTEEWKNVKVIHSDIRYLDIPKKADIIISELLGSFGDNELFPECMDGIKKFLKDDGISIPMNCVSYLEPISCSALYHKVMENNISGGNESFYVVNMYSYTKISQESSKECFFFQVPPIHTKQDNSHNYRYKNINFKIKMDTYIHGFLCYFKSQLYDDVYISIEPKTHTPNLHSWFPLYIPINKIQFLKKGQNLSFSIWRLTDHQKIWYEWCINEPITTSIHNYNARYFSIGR
Assay: MTase-Glo luminescence methyltransferase assay
Type: biochemical
Conditions: 30 min pre-incubation at 37 °C, 115 µM PfPRMT5 as printed, 10 µM SAM, 0.1 µM human recombinant mononucleosomes, pH 8.0, 60 min

With `Nc1nc2cc(CC[C@H]3C[C@@H](n4ccc5c(N)ncnc54)[C@H](O)[C@@H]3O)ccc2cc1Br` [onametostat] the “% reduction of activity at 1:1 molar ratio PfPRMT5:onametostat” value was ~ 48%.
